Values joined by “and” are separate entries in the source; they are usually repeats but may differ in a detail not shown here. Equal entries are not always repeated. Inconclusive results and toxic doses are left out.
Test system: CD2F1 mice, L1210 leukemia ip, survival T/C
Assay: NCI In Vivo Anticancer Drug Screen. Data for tumor model L1210 Leukemia (intraperitoneal) in CD2F1 (CDF1) mice
Conditions: higher = longer survival
Experimental: The antitumor activity of compounds was measured in mice bearing transplantable tumors. Survival or tumor size were measured and the results are expressed as the measurement made in the treated group (T) divided by the measurement made in the vehicle treated control group (C). The tumor model used in this assay is L1210 Leukemia (intraperitoneal) in CD2F1 (CDF1) mice

[1] = endpoint: mean survival time, dose: 5.0 mg/kg/injection, schedule: Q01DX009 (ip), vehicle: saline
[2] = endpoint: mean survival time, dose: 5.0 mg/kg/injection, schedule: Q04DX003 (ip), vehicle: saline
[3] = endpoint: mean survival time, dose: 10.0 mg/kg/injection, schedule: Q04DX003 (ip), vehicle: saline
[4] = endpoint: mean survival time, dose: 20.0 mg/kg/injection, schedule: Q04DX003 (ip), vehicle: saline
[5] = endpoint: mean survival time, dose: 100.0 mg/kg/injection, schedule: Q04DX003 (ip), vehicle: saline with Tween-80
[6] = endpoint: mean survival time, dose: 25.0 mg/kg/injection, schedule: Q01DX009 (ip), vehicle: saline with Tween-80
[7] = endpoint: mean survival time, dose: 50.0 mg/kg/injection, schedule: Q01DX009 (ip), vehicle: saline with Tween-80
[8] = endpoint: mean survival time, dose: 100.0 mg/kg/injection, schedule: Q01DX009 (ip), vehicle: saline with Tween-80
[9] = endpoint: mean survival time, dose: 12.5 mg/kg/injection, schedule: Q01DX009 (ip), vehicle: saline with Tween-80
[10] = endpoint: mean survival time, dose: 200.0 mg/kg/injection, schedule: Q01DX009 (ip), vehicle: saline with Tween-80
[11] = endpoint: mean survival time, dose: 6.25 mg/kg/injection, schedule: Q01DX009 (ip), vehicle: saline with Tween-80

## COc1ccc(COc2ccc([N+](=O)[O-])cc2)cc1
endpoint: mean survival time, dose: 100.0 mg/kg/injection, schedule: Q04DX002 (ip), vehicle: saline with Tween-80
  T/C: 87 % of control
endpoint: mean survival time, dose: 400.0 mg/kg/injection, schedule: Q04DX002 (ip), vehicle: saline with Tween-80
  T/C: 87 % of control

## CC1=C(C)CC([P+](c2ccccc2)(c2ccccc2)c2ccccc2)CC1 (stereo not given)
endpoint: mean survival time, dose: 6.25 mg/kg/injection, schedule: Q01DX001 (ip), vehicle: saline with Tween-80
  T/C: 98 % of control
endpoint: mean survival time, dose: 12.5 mg/kg/injection, schedule: Q01DX001 (ip), vehicle: saline with Tween-80
  T/C: 90 % of control
endpoint: mean survival time, dose: 25.0 mg/kg/injection, schedule: Q01DX001 (ip), vehicle: saline with Tween-80
  T/C: 94 % of control

## O=C(O)/C=C\C(=O)Nc1ccccn1
[1]
  T/C: 94 % of control
[2]
  T/C: 105 % of control and 106 % of control
endpoint: mean survival time, dose: 10.0 mg/kg/injection, schedule: Q01DX009 (ip), vehicle: saline
  T/C: 92 % of control
[3]
  T/C: 97 % of control and 105 % of control
[4]
  T/C: 97 % of control and 98 % of control
endpoint: mean survival time, dose: 30.0 mg/kg/injection, schedule: Q01DX009 (ip), vehicle: saline
  T/C: 100 % of control
endpoint: mean survival time, dose: 60.0 mg/kg/injection, schedule: Q01DX009 (ip), vehicle: saline
  T/C: 105 % of control

## COc1ccc(S(=O)(=O)F)cc1NC(=O)c1ccc2ccccc2c1O
endpoint: mean survival time, dose: 100.0 mg/kg/injection, schedule: Q01DX009 (ip), vehicle: saline
  T/C: 112 % of control
endpoint: mean survival time, dose: 200.0 mg/kg/injection, schedule: Q01DX009 (ip), vehicle: saline
  T/C: 108 % of control
endpoint: mean survival time, dose: 400.0 mg/kg/injection, schedule: Q01DX009 (ip), vehicle: saline
  T/C: 113 % of control

## C/C(=N\Nc1ccc([N+](=O)[O-])cc1[N+](=O)[O-])C1CCCCC1
[5]
  T/C: 100 % of control
endpoint: mean survival time, dose: 200.0 mg/kg/injection, schedule: Q04DX003 (ip), vehicle: saline with Tween-80
  T/C: 91 % of control
endpoint: mean survival time, dose: 400.0 mg/kg/injection, schedule: Q04DX003 (ip), vehicle: saline with Tween-80
  T/C: 91 % of control

## CCCCCCCCC/C=C(/CC(=O)O)C(=O)O
[6]
  T/C: 92 % of control
[7]
  T/C: 96 % of control
[8]
  T/C: 102 % of control

## Cn1cc(C(O)CN2CCCCC2)c2ccccc21 (stereo not given)
[5]
  T/C: 93 % of control

## Nc1ccc(C(=O)CCCN2CCCCC2)cc1
endpoint: mean survival time, dose: 12.5 mg/kg/injection, schedule: Q04DX003 (ip), vehicle: saline
  T/C: 107 % of control
endpoint: mean survival time, dose: 25.0 mg/kg/injection, schedule: Q04DX003 (ip), vehicle: saline
  T/C: 95 % of control
endpoint: mean survival time, dose: 50.0 mg/kg/injection, schedule: Q04DX003 (ip), vehicle: saline
  T/C: 107 % of control

## CNC(=O)c1cccc2c(Nc3ccc(NS(C)(=O)=O)cc3OC)c3cccc(C)c3nc12
endpoint: median survival time, dose: 3.0 mg/kg/injection, schedule: Q01DX009 (ip), vehicle: water
  T/C: 181 % of control
endpoint: median survival time, dose: 6.25 mg/kg/injection, schedule: Q01DX009 (ip), vehicle: water
  T/C: 195 % of control
endpoint: median survival time, dose: 12.0 mg/kg/injection, schedule: Q01DX009 (ip), vehicle: water
  T/C: 98 % of control
endpoint: median survival time, dose: 12.5 mg/kg/injection, schedule: Q01DX005 (oral), vehicle: water
  T/C: 160 % of control
endpoint: median survival time, dose: 12.5 mg/kg/injection, schedule: Q01DX009 (ip), vehicle: water
  T/C: 102 % of control
endpoint: median survival time, dose: 25.0 mg/kg/injection, schedule: Q01DX005 (oral), vehicle: water
  T/C: 102 % of control
endpoint: median survival time, dose: 25.0 mg/kg/injection, schedule: Q01DX009 (ip), vehicle: water
  T/C: 87 % of control

## FC(F)(F)c1ccc2nc(CI)c(CI)nc2c1
endpoint: mean survival time, dose: 1.5 mg/kg/injection, schedule: Q01DX009 (ip), vehicle: saline with Tween-80
  T/C: 104 % of control
endpoint: mean survival time, dose: 3.0 mg/kg/injection, schedule: Q01DX009 (ip), vehicle: saline with Tween-80
  T/C: 110 % of control
endpoint: mean survival time, dose: 6.0 mg/kg/injection, schedule: Q01DX009 (ip), vehicle: saline with Tween-80
  T/C: 96 % of control
endpoint: mean survival time, dose: 12.0 mg/kg/injection, schedule: Q01DX009 (ip), vehicle: saline with Tween-80
  T/C: 104 % of control
endpoint: mean survival time, dose: 24.0 mg/kg/injection, schedule: Q01DX009 (ip), vehicle: saline with Tween-80
  T/C: 88 % of control

## O=S(=O)(Cl)OC1C2COC(O2)C(OS(=O)(=O)Cl)C1OS(=O)(=O)Cl (stereo not given)
[9]
  T/C: 108 % of control
[6]
  T/C: 103 % of control
[7]
  T/C: 102 % of control

## CC1C2C=CC(C2)C1C(=O)O (stereo not given)
[7]
  T/C: 93 % of control
[8]
  T/C: 96 % of control and 98 % of control
[10]
  T/C: 100 % of control and 87 % of control

## O=C(OC1COC(OCc2ccccc2)C(OC(=O)c2ccccc2)C1OC(=O)c1ccccc1)c1ccccc1 (stereo not given)
[11]
  T/C: 102 % of control
[9]
  T/C: 105 % of control
[6]
  T/C: 108 % of control

## CCOC(=O)C1C=CCCC1 (stereo not given)
[8]
  T/C: 97 % of control
[10]
  T/C: 103 % of control
endpoint: mean survival time, dose: 400.0 mg/kg/injection, schedule: Q01DX009 (ip), vehicle: saline with Tween-80
  T/C: 95 % of control

## FC(F)(F)S.[Hg]
[2]
  T/C: 101 % of control
[3]
  T/C: 97 % of control
[4]
  T/C: 95 % of control

## CCCN(CCC)S(=O)(=O)c1ccc(NC(=O)OC(CC)c2ccco2)cc1 (stereo not given)
endpoint: mean survival time, dose: 100.0 mg/kg/injection, schedule: Q01DX001 (ip), vehicle: saline
  T/C: 94 % of control
endpoint: mean survival time, dose: 200.0 mg/kg/injection, schedule: Q01DX001 (ip), vehicle: saline
  T/C: 95 % of control
endpoint: mean survival time, dose: 400.0 mg/kg/injection, schedule: Q01DX001 (ip), vehicle: saline
  T/C: 94 % of control

## C/C(=N\O)c1ccccn1
endpoint: mean survival time, dose: 25.0 mg/kg/injection, schedule: Q01DX009 (ip), vehicle: Klucel (hydroxypropylcellulose) (HPC)
  T/C: 95 % of control
endpoint: mean survival time, dose: 50.0 mg/kg/injection, schedule: Q01DX009 (ip), vehicle: Klucel (hydroxypropylcellulose) (HPC)
  T/C: 100 % of control
endpoint: mean survival time, dose: 100.0 mg/kg/injection, schedule: Q01DX009 (ip), vehicle: Klucel (hydroxypropylcellulose) (HPC)
  T/C: 90 % of control
endpoint: mean survival time, dose: 200.0 mg/kg/injection, schedule: Q01DX009 (ip), vehicle: Klucel (hydroxypropylcellulose) (HPC)
  T/C: 95 % of control
endpoint: mean survival time, dose: 400.0 mg/kg/injection, schedule: Q01DX009 (ip), vehicle: Klucel (hydroxypropylcellulose) (HPC)
  T/C: 105 % of control

## C/C=C(\C)c1cc(=O)c2c(C)cc3c(c2o1)C(=O)c1c(O)c(C2CC(C)(N(C)C)C(OC(C)=O)C(C)O2)cc(C2CC(N(C)C)C(O)C(C)O2)c1C3=O (stereo not given)
endpoint: mean survival time, dose: 0.15 mg/kg/injection, schedule: Q01DX009 (ip), vehicle: saline
  T/C: 103 % of control
endpoint: mean survival time, dose: 0.31 mg/kg/injection, schedule: Q01DX009 (ip), vehicle: saline
  T/C: 98 % of control
endpoint: mean survival time, dose: 0.62 mg/kg/injection, schedule: Q01DX009 (ip), vehicle: saline
  T/C: 115 % of control and 100 % of control
endpoint: mean survival time, dose: 1.25 mg/kg/injection, schedule: Q01DX009 (ip), vehicle: saline
  T/C: 106 % of control and 111 % of control
endpoint: mean survival time, dose: 2.5 mg/kg/injection, schedule: Q01DX009 (ip), vehicle: saline
  T/C: 105 % of control and 108 % of control
[1]
  T/C: 115 % of control

## COc1cc2c(cc1O)N=C[C@@H]1CCC(O)N1C2=O (mixture of isomers)
endpoint: mean survival time, dose: 0.5 mg/kg/injection, schedule: Q01DX009 (ip), vehicle: saline
  T/C: 108 % of control
endpoint: mean survival time, dose: 1.0 mg/kg/injection, schedule: Q01DX009 (ip), vehicle: saline
  T/C: 102 % of control and 108 % of control
endpoint: mean survival time, dose: 2.0 mg/kg/injection, schedule: Q01DX009 (ip), vehicle: saline
  T/C: 118 % of control and 111 % of control
endpoint: mean survival time, dose: 4.0 mg/kg/injection, schedule: Q01DX009 (ip), vehicle: saline
  T/C: 113 % of control and 117 % of control
endpoint: mean survival time, dose: 8.0 mg/kg/injection, schedule: Q01DX009 (ip), vehicle: saline
  T/C: 106 % of control and 107 % of control
endpoint: median survival time, dose: 0.1 mg/kg/injection, schedule: Q01DX005 (ip), vehicle: saline
  T/C: 102 % of control
endpoint: median survival time, dose: 0.2 mg/kg/injection, schedule: Q01DX005 (ip), vehicle: saline
  T/C: 102 % of control
endpoint: median survival time, dose: 0.4 mg/kg/injection, schedule: Q01DX005 (ip), vehicle: saline
  T/C: 102 % of control
endpoint: median survival time, dose: 0.8 mg/kg/injection, schedule: Q01DX005 (ip), vehicle: saline
  T/C: 102 % of control
endpoint: median survival time, dose: 1.6 mg/kg/injection, schedule: Q01DX005 (ip), vehicle: saline
  T/C: 107 % of control

## C=C1C(=O)C23[C@H](O)C1CC[C@H]2[C@]12COC3(O)[C@@H](O)[C@@H]1C(C)(C)CC[C@@H]2O
endpoint: mean survival time, dose: 1.56 mg/kg/injection, schedule: Q01DX009 (ip), vehicle: saline with Tween-80
  T/C: 97 % of control and 111 % of control
endpoint: mean survival time, dose: 3.12 mg/kg/injection, schedule: Q01DX009 (ip), vehicle: saline with Tween-80
  T/C: 102 % of control and 103 % of control
endpoint: mean survival time, dose: 4.5 mg/kg/injection, schedule: Q01DX009 (ip), vehicle: Klucel (hydroxypropylcellulose) (HPC)
  T/C: 93 % of control and 105 % of control and 107 % of control
[11]
  T/C: 96 % of control and 102 % of control
endpoint: mean survival time, dose: 9.0 mg/kg/injection, schedule: Q01DX009 (ip), vehicle: Klucel (hydroxypropylcellulose) (HPC)
  T/C: 95 % of control and 97 % of control
[9]
  T/C: 97 % of control and 105 % of control
endpoint: mean survival time, dose: 18.0 mg/kg/injection, schedule: Q01DX009 (ip), vehicle: Klucel (hydroxypropylcellulose) (HPC)
  T/C: 93 % of control and 101 % of control and 107 % of control
[6]
  T/C: 102 % of control and 105 % of control
endpoint: mean survival time, dose: 36.0 mg/kg/injection, schedule: Q01DX009 (ip), vehicle: Klucel (hydroxypropylcellulose) (HPC)
  T/C: 90 % of control and 107 % of control

— PubChem BioAssay AID256 (DTP/NCI, 2004)
